Here are results for 53 compounds from patent US8354403B2, “Pyrrolidine derived beta 3 adrenergic receptor agonists” (Merck Sharp & Dohme Corp., priority 2009, dated 2013).

The target of one assay is T1, human β3 adrenergic receptor (Homo sapiens, UniProt P13945).
T1 construct: expressed in transfected cells; host or cells: Chinese hamster ovary (CHO) cells, stably transfected
T1 sequence (P13945 whole entry): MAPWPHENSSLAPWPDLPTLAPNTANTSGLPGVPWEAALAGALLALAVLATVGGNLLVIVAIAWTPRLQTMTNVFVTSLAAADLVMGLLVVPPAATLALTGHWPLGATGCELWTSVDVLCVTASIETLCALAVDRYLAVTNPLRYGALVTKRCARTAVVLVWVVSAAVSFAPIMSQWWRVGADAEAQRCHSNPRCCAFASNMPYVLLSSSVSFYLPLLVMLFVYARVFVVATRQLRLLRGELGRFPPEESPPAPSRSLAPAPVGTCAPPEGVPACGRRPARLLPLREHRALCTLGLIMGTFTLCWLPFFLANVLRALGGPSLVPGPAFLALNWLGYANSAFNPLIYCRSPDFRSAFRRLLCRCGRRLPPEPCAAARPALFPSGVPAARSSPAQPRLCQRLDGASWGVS
Put plainly: Beta-3 agonist in vitro functional assay: cAMP production (LANCE TR-FRET) in CHO cells stably transfected with the cloned β3 receptor. It is filed as cell-based. Particulars: Table 4; cAMP, CHO cells; read-out: Human β3 agonist functional activity. The procedure, abridged:
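CHO cells stably expressing the cloned receptor, in HEPES-buffered HBSS with BSA and 0.6 mM IBMX, 6,000 cells/well, exposed to compound for 30 min at RT. cAMP read by LANCE TR-FRET against a cAMP standard curve. Isoproterenol defines maximal stimulation.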
Background: Cyclic AMP is a second messenger, typically raised through Gs and lowered through Gi signalling.
With `CC1(O)CCN(C(=O)c2ccc(C[C@@H]3CC[C@H]([C@H](O)c4ccccc4)N3)cc2)C1` (some centres unmarked) [Example 12], the EC50 lay within 100 to 999 nM.

The same assay, now with this note: Table 5; cAMP, CHO cells; read-out: Human β3 agonist functional activity.
`O=C(c1ccc(C[C@@H]2CC[C@H]([C@H](O)c3ccccc3)N2)cc1)N1CCC(Cn2cccn2)CC1` [Example 143]: the EC50 is 10 to 99.9 nM. Same read-out and setting: the value for `O=C(c1ccc(C[C@@H]2CC[C@H]([C@H](O)c3ccccc3)N2)cc1)N1CCC(n2c(=O)[nH]c3ccccc32)CC1` [Example 74] was 100 to 999 nM. Take `Cc1cncn1C1CCN(C(=O)c2ccc(C[C@@H]3CC[C@H]([C@H](O)c4ccccc4)N3)cc2)CC1` [Example 86]: the EC50 fell in the range of 100 to 999 nM.

Take `Cc1ccc(S(=O)(=O)C2CCN(C(=O)c3ccc(C[C@@H]4CC[C@H]([C@H](O)c5cccnc5)N4)cc3)CC2)cc1` [Example 135]: the EC50 was 100 to 999 nM. On the same count and under the same terms, the value for `O=C(c1ccc(C[C@@H]2CC[C@H]([C@H](O)c3ccccc3)N2)cc1)N1CCC(S(=O)(=O)c2ccc(Cl)cc2)CC1` [Example 136] was 10 to 99.9 nM; that for `O=C(c1ccc(C[C@@H]2CC[C@H]([C@H](O)c3ccccc3)N2)cc1)N1CCC(c2nc(-c3cccnc3)no2)CC1` [Example 82] was 100 to 999 nM; that for `CNC(=O)c1ccccc1OC1CCN(C(=O)c2ccc(C[C@@H]3CC[C@H]([C@H](O)c4ccccc4)N3)cc2)CC1` [Example 157] was 100 to 999 nM. The same measure, in the same setting: the value for `Cn1cc(C2CCN(C(=O)c3ccc(C[C@@H]4CC[C@H]([C@H](O)c5ccccc5)N4)cc3)CC2)nn1` [Example 97] was 100 to 999 nM; that for `Cc1nccc(OC2CCN(C(=O)c3ccc(C[C@@H]4CC[C@H]([C@H](O)c5ccccc5)N4)cc3)CC2)n1` [Example 154] was 100 to 999 nM. The same measure, in the same setting: under `O=C(c1ccc(C[C@@H]2CC[C@H]([C@H](O)c3ccccc3)N2)cc1)N1CCC(S(=O)(=O)c2ccccc2)CC1` [Example 127] stands 10 to 99.9 nM.

The assay is the same for the next values; noted with them: Table 7; cAMP, CHO cells; ranges as given for Tables 6 and 7; read-out: Human β3 agonist functional activity.
Regarding `O=C(c1ccc(CC2CCC(C(O)c3ccccc3)N2)cc1)N1CC2C(C1)C2Cn1ccnn1` (centres unmarked) [Example 233], the EC50 lay within 100 to 999 nM.

Still in this assay, the particulars now being: Table 8; Beta-3 agonist in vitro functional assay; read-out: Human β3 agonist functional activity.
As for `O=C1OC2(CCN(C(=O)c3ccc(C[C@@H]4CC[C@H]([C@H](O)c5ccccc5)N4)cc3)CC2)CC1Cc1ccc(F)cc1` (some centres unmarked) [Example 276], the EC50 was in the range of 1 to 9.9 nM. The same measure, in the same setting: under `COc1ccc2c(c1)C(=O)CC1(CCN(C(=O)c3ccc(C[C@@H]4CC[C@H]([C@H](O)c5ccccc5)N4)cc3)CC1)S2` [Example 328] stands 1 to 9.9 nM; under `COc1ccc(C2(CNC(=O)C(C)(C)C)CCN(C(=O)c3ccc(C[C@@H]4CC[C@H]([C@H](O)c5cccnc5)N4)cc3)CC2)cc1` [Example 247], 100 to 999 nM. On the same count and under the same terms, under `O=C(c1ccc(C[C@@H]2CC[C@H]([C@H](O)c3ccccc3)N2)cc1)N1CCC2(CCc3cn[nH]c32)CC1` [Example 321] stands 100 to 999 nM.

On to `O=C(c1ccc(C[C@@H]2CC[C@H]([C@H](O)c3ccccc3)N2)cc1)N1CCC2(C=Cc3ccccc3S2(=O)=O)CC1` [Example 337], for which the EC50 was in the range of 1 to 9.9 nM. Same read-out and setting: under `CC1(Cc2ccc(F)cc2)CC2(CCN(C(=O)c3ccc(C[C@@H]4CC[C@H]([C@H](O)c5ccccc5)N4)cc3)CC2)OC1=O` (some centres unmarked) [Example 278] stands less than 1 nM; under `CN1CCCC2(CCN(C(=O)c3ccc(C[C@@H]4CC[C@H]([C@H](O)c5ccccc5)N4)cc3)CC2)C1=O` [Example 257], 100 to 999 nM.

As to `O=C(c1ccc(C[C@@H]2CC[C@H]([C@H](O)c3ccccc3)N2)cc1)N1CCC2(CC1)CC(c1ccc(F)cc1)CO2` (some centres unmarked) [Example 310], the EC50 fell in the range of 100 to 999 nM. The same measure, in the same setting: under `CC1(C)CC2(CCN(C(=O)c3ccc(C[C@@H]4CC[C@H]([C@H](O)c5cccnc5)N4)cc3)CC2)C(=O)O1` [Example 294] stands 1 to 9.9 nM; under `O=C(c1ccc(C[C@@H]2CC[C@H]([C@H](O)c3ccccc3)N2)cc1)N1CCC2(CC1)CCN(Cc1ccccc1)C2=O` [Example 255], 1 to 9.9 nM; under `CC1(C)CC2(CCN(C(=O)c3ccc(C[C@@H]4CC[C@H]([C@H](O)c5ccccc5)N4)cc3)CC2)C(=O)O1` [Example 293], 1 to 9.9 nM. Consider `CC1(C)CC2(CCN(C(=O)c3ccc(C[C@@H]4CC[C@H]([C@H](O)c5ccc[n+]([O-])c5)N4)cc3)CC2)C(=O)O1` [Example 295], for which the EC50 was 100 to 999 nM.

Regarding `COc1ccc2c(n1)C1(CCN(C(=O)c3ccc(C[C@@H]4CC[C@H]([C@H](O)c5ccccc5)N4)cc3)CC1)OC2=O` [Example 288], the EC50 is 10 to 99.9 nM.

In the case of `O=C1OC2(CCN(C(=O)c3ccc(C[C@@H]4CC[C@H]([C@H](O)c5ccccc5)N4)cc3)CC2)c2ccccc21` [Example 283], the EC50 lay in the range of 10 to 99.9 nM. The same measure, in the same setting: the value for `O=C1C=C(c2ccccc2)C2(CCN(C(=O)c3ccc(C[C@@H]4CC[C@H]([C@H](O)c5ccccc5)N4)cc3)CC2)O1` [Example 281] was 1 to 9.9 nM; that for `Cc1ccc2c(c1)NC(=O)C21CCN(C(=O)c2ccc(C[C@@H]3CC[C@H]([C@H](O)c4ccccc4)N3)cc2)CC1` [Example 300] was 10 to 99.9 nM.

The same assay, now with this note: Table 9; Beta-3 agonist in vitro functional assay; read-out: Human β3 agonist functional activity.
Turning to `Cn1nnnc1CN1CCN(C(=O)c2ccc(C[C@@H]3CC[C@H]([C@H](O)c4ccccc4)N3)cc2)CC1` [Example 399], the EC50 was 10 to 99.9 nM. On the same count and under the same terms, the value for `CC(C)Oc1cccnc1CN1CCN(C(=O)c2ccc(C[C@@H]3CC[C@H]([C@H](O)c4ccccc4)N3)cc2)CC1` [Example 415] was 10 to 99.9 nM; that for `O=C(c1ccccc1)N1CCN(C(=O)c2ccc(C[C@@H]3CC[C@H]([C@H](O)c4ccccc4)N3)cc2)CC1` [Example 347] was 100 to 999 nM. On the same count and under the same terms, under `CC(c1nn[nH]n1)N1CCN(C(=O)c2ccc(C[C@@H]3CC[C@H]([C@H](O)c4ccccc4)N3)cc2)CC1` (some centres unmarked) [Example 423] stands 10 to 99.9 nM.

Take `O=C(c1ccc(C[C@@H]2CC[C@H]([C@H](O)c3ccccc3)N2)cc1)N1CCN(Cc2ncccc2F)CC1` [Example 418]: the EC50 lay in the range of 10 to 99.9 nM. Still for that read-out and setting: under `O=C(c1ccc(C[C@@H]2CC[C@H]([C@H](O)c3ccccc3)N2)cc1)N1CCN(c2ncccc2F)CC1` [Example 357] stands 100 to 999 nM.

In the case of `O=C(c1ccc(C[C@@H]2CC[C@H]([C@H](O)c3ccccc3)N2)cc1)N1CCN(c2noc3ccccc23)CC1` [Example 385], the EC50 lay in the range of 10 to 99.9 nM. For `O=C(c1ccc(C[C@@H]2CC[C@H]([C@H](O)c3ccccc3)N2)cc1)N1CCN(Cc2c(F)cccc2F)CC1` [Example 411], the EC50 lay within 1 to 9.9 nM.

The assay is the same for the next values; noted with them: Table 10; Beta-3 agonist in vitro functional assay; read-out: Human β3 agonist functional activity.
For `CC(C)CN(C)C(=O)C(C)N1CCN(C(=O)c2ccc(C[C@@H]3CC[C@H]([C@H](O)c4ccccc4)N3)cc2)CC1` (some centres unmarked) [Example 518], the EC50 was 100 to 999 nM. Same read-out and setting: under `CC(C(=O)NC1CCN(C)C1=O)N1CCN(C(=O)c2ccc(C[C@@H]3CC[C@H]([C@H](O)c4ccccc4)N3)cc2)CC1` (some centres unmarked) [Example 459] stands less than 1 nM; under `CC(C(=O)O)N1CCN(C(=O)c2ccc(C[C@@H]3CC[C@H]([C@H](O)c4ccccc4)N3)cc2)CC1` (some centres unmarked) [Example 433], 1 to 9.9 nM. The same measure, in the same setting: the value for `CC(C(=O)N1CCCC2(CCCO2)C1)N1CCN(C(=O)c2ccc(C[C@@H]3CC[C@H]([C@H](O)c4ccccc4)N3)cc2)CC1` (some centres unmarked) [Example 497] was 10 to 99.9 nM; that for `CC(C(=O)NCC1CCC1)N1CCN(C(=O)c2ccc(C[C@@H]3CC[C@H]([C@H](O)c4ccccc4)N3)cc2)CC1` (some centres unmarked) [Example 452] was 1 to 9.9 nM; that for `CC(C(=O)NCC1CC1(C)C)N1CCN(C(=O)c2ccc(C[C@@H]3CC[C@H]([C@H](O)c4ccccc4)N3)cc2)CC1` (some centres unmarked) [Example 450] was 10 to 99.9 nM.

Take `CC(C(=O)N1CCC(CO)CC1)N1CCN(C(=O)c2ccc(C[C@@H]3CC[C@H]([C@H](O)c4ccccc4)N3)cc2)CC1` (some centres unmarked) [Example 490]: the EC50 lay in the range of 10 to 99.9 nM.

Consider `CC(C(=O)NCc1nnc2n1CCC2)N1CCN(C(=O)c2ccc(C[C@@H]3CC[C@H]([C@H](O)c4ccccc4)N3)cc2)CC1` (some centres unmarked) [Example 466], for which the EC50 lay in the range of 100 to 999 nM.

Turning to `CC(C(=O)N1CC[C@H](F)C1)N1CCN(C(=O)c2ccc(C[C@@H]3CC[C@H]([C@H](O)c4ccccc4)N3)cc2)CC1` (some centres unmarked) [Example 475], the EC50 fell in the range of 1 to 9.9 nM. Same read-out and setting: under `CC(C(=O)NC1CCOC1)N1CCN(C(=O)c2ccc(C[C@@H]3CC[C@H]([C@H](O)c4ccccc4)N3)cc2)CC1` (some centres unmarked) [Example 457] stands 10 to 99.9 nM; under `CC(C(=O)N1CCC1)N1CCN(C(=O)c2ccc(C[C@@H]3CC[C@H]([C@H](O)c4ccccc4)N3)cc2)CC1` (some centres unmarked) [Example 471], 1 to 9.9 nM; under `CCN(CCO)C(=O)C(C)N1CCN(C(=O)c2ccc(C[C@@H]3CC[C@H]([C@H](O)c4ccccc4)N3)cc2)CC1` (some centres unmarked) [Example 520], 10 to 99.9 nM.

The assay is the same for the next values; noted with them: Table 12; human β3 functional activity given as ranges; read-out: Human β3 agonist functional activity.
For `CC(C)(C)C1CC2(CCN(C(=O)c3ccc(CC4CCC(C(O)c5ccccc5)N4)cc3)CC2)C(=O)O1` (single isomer, unassigned) [Example 569], the EC50 lay within 1 to 9.9 nM. As for `CC1CC2(CCN(C(=O)c3ccc(CC4CCC(C(O)c5ccccc5)N4)cc3)CC2)C(=O)O1` (single isomer, unassigned) [Example 561], the EC50 was 1 to 9.9 nM. For the compound `CCC(c1ccccn1)N1CCN(C(=O)c2ccc(CC3CCC(C(O)c4ccccc4)N3)cc2)CC1` (single isomer, unassigned) [Example 588], the EC50 is 1 to 9.9 nM.

Staying with this assay, now noted: given as a range; cAMP, CHO cells; read-out: human β3 functional activity.
As to `O=C(c1ccc(C[C@@H]2CC[C@H]([C@H](O)c3ccccc3)N2)cc1)N1C[C@@H]2C(n3cnnn3)[C@@H]2C1` (stereo partly drawn) [Example 169, (R)-phenyl[(2R,5S)-5-(4-{[(1R,5S,6r)-6-(1H-tetraol-1-yl)-3-azabicyclo[3.1.0]hex-3yl]carbonyl}benzyl)pyrrolidine-2-yl]methanol], the EC50 lay within 1 to 9.9 nM. With `O=C(c1ccc(C[C@@H]2CC[C@H]([C@H](O)c3ccccc3)N2)cc1)N1CCC2(CC1)CC(C1CC1)OC2=O` (single isomer, unassigned) [Ex. 553], the EC50 was in the range of 1 to 9.9 nM.
